Source: patent publication US11241455B2, “Methods of treating disease by metabolic control of T-cell differentiation” (The J. David Gladstone Institutes, a testamentary trust …, priority 2016, dated 2022)

Legend:
[1] = tested on: differentiating TH17 cells; assay: 15N-α-glutamine flux analysis (transamination) in differentiating TH17 cells; assay type: cell-based, mouse
Method: CD4 naïve T cells, differentiating TH17 or iTreg cells (68 hours) were incubated with fresh media prior to labeling. The cells were then cultured for 4 hours at 37° C. with medium where the glutamine was replaced with the corresponding stable isotope label: 2 mM U-^13C glutamine or 2 mM ^15N-α-glutamine for 4 hours at 37° C. The cells were quickly collected and quickly washed with phosphate buffer saline (PBS), pelleted, and snap frozen in liquid nitrogen. The frozen samples were kept in −80° C. until extraction. Cell extracts were prepared by first adding 80/20 MeOH/H2O at −60° C. to the frozen pellets and collecting the supernatant after centrifugation at 4° C. The extracted samples were analyzed by high-resolution liquid-chromatography-mass spectrometry. Unlabeled glutamine-fed cells were used as background.
For amino acid profiling: The ultra-high pressure liquid chromatography (U-HPLC) system consisted of a Thermo Fisher Scientific (San Jose, USA) U-HPLC pumping system, coupled to an autosampler and degasser. Chromatographic separation of the intracellular metabolites was achieved by usage of a reversed phase Atlantis® T3 (3 μm, 2.1 mm ID×150 mm) column (Waters, Eschborn, Germany) and by implementation of a gradient elution program. […]

[2] = tested on: FOXP3 promoter and its intronic CpG island; assay: Methylation analysis by bisulfite sequencing, T cells under TH17 condition; assay type: cell-based, mouse; conditions: 0.5 mM dimethyl R-2-HG (day 4) or AOA (day 6), male mice
Method: The method is essentially the same as described previously (Kim, et al. J Exp Med 204 (7), 1543-1551 (2007)). Briefly, genomic DNA was purified with Blood & Cell Culture DNA Midi Kit (Qiagen). Bisufite conversion of genomic DNA was performed using Epitect® bisulfite kit (Qiagen), according to the manufacture's instruction. The PCR product was run on 2% agarose, purified and cloned using TOPO® TA Cloning® Kit with PCR®4. Clones are picked for Sanger sequencing.

## NOCC(=O)O [AOA, (aminooxy)-acetic acid]
[1]; differentiating TH17 cells fed 2 mM 15N-α-glutamine for 4 hours
  reduction of total intracellular 15N-α-aspartate: 90%
[1]; differentiating TH17 cells, 2 mM 15N-α-glutamine for 4 hours
  de novo synthesis for several amino acids (15N label incorporation): significant decreases
[2]
  methylation level of FOXP3 promoter and its intronic CpG island: dramatically decreased the methylation levels
